The results in this text go back to US7033810B2, “Sitosterolemia susceptibility gene (SSG): compositions and methods of use” (Amgen Inc., priority 2000, dated 2006).

SMILES strings stand for the structures.

The test system of one assay is human ABC1. Description: Northern blot, ABC1 expression in Caco-2 cells. Type of assay: cell-based. Particulars: Human Caco-2 cells. How it is done: (§1) Human Caco-2 cells were treated with Compounds B and C. Northern blot analysis was performed (essentially as described above) using human ABC1 and ABC8 cDNA probes.
The test system of a further assay is human ABC8. Put plainly: Northern blot, ABC8 expression in Caco-2 cells. Type of assay: cell-based. Particulars: Human Caco-2 cells. As to the method: as §1
Another assay relates to ABC1 mRNA. Description: Northern blot of ABC1 mRNA in tissues of treated mice. In kind it is in vivo, C57BL/6 mouse. Particulars: 0, 1, 5 and 50 mg/kg. As to the method:
(§2) Total RNA was prepared from untreated (control) and treated (0, 1, 5 and 50 mg/kg of LXRa agonist Compound A) C57BL/6 mouse liver, intestine and kidney. RNA was electrophoresed on 1.2% agarose/formaldehyde gels, transferred to nylon membrane (Ambion, Bright Star), hybridized to ^32P-labeled murine ABC-1, apolipoprotein AI, and GAPDH cDNA probes, washed and subjected to autoradiography.

The next assay relates to GAPDH mRNA. Put plainly: Northern blot of GAPDH mRNA in tissues of treated mice. Type of assay: in vivo, C57BL/6 mouse. Particulars: liver, intestine and kidney; 0, 1, 5 and 50 mg/kg. As to the method:
as §2

Assay [1] relates to EST clone AA237916 (murine SSG). Description: GEM analysis, EST clone AA237916. Type of assay: in vivo, C57BL/6 mouse. How it is done:
Total RNA was prepared from untreated (control) and treated (50 mg/kg of LXRα agonist Compound A) C57BL/6 mouse liver, intestine and kidney. Control and treated RNA samples were used to generate separate pools of unique, fluorescently labeled cDNA probes (performed at Incyte Genomics Inc.). Each (two fluorescent probe) tissue sample was simultaneously applied to a single Incyte Mouse GEM™ 1 microarray where they were competitively reacted with the arrayed cDNA molecules (containing 8,734 cDNA elements). The intensity of the fluorescence at each array element is proportional to the expression level of that particular gene in the sample. Each element of the GEM™ microarray was scanned for the first fluorescent color, and then repeated for the second fluorescent label. The ratio of the two fluorescent intensities provided a quantitative measurement of the relative gene expression level in the two samples. […] A portion of that composite is shown in Table 2, which lists genes having the highest relative expression levels in the treated intestine and their corresponding relative expression levels in liver and kidney. […] One EST in particular, corresponding to Accession Number AA237916, and shown in the first row of Table 2, was selected for further analysis, in part based on its similarity to the Drosophila Brown protein, a member of the ABC superfamily. […]

The next assay has as its system SSG mRNA. Description: Northern blot of SSG mRNA in tissues of treated mice. In kind it is in vivo, C57BL/6 mouse. Particulars: 0, 1, 5 and 50 mg/kg. As to the method: Total RNA was prepared from untreated (control) and treated (0, 1, 5 and 50 mg/kg of LXRa agonist Compound A) C57BL/6 mouse liver, intestine and kidney. RNA was electrophoresed on 1.2% agarose/formaldehyde gels, transferred to nylon membrane (Ambion, Bright Star), hybridized to ^32P-labeled murine SSG cDNA probe, washed and subjected to autoradiography.

The test system of another assay is Caco-2 cells. Description: [3H]-cholesterol efflux from Caco-2 cells. Type of assay: cell-based, human. Particulars: 1 μM, 24 h treatment; efflux media with apolipoprotein AI 10 ug/ml; 8 and 24 hour time points. As to the method:
Caco2 cells (an adenocarcinoma cell line derived from human colon) were plated in 6 well plates at 50-60% confluence and allowed to adhere overnight in DMEM containing 10% FBS, non-essential amino acids, and Pen/Strep. On the second day, cells were labeled for 24 h with [^3H]-cholesterol (0.5 μCi/ml in DMEM and 1% BSA, Pen/Strep). Cells were washed (2×) with PBS and DMEM (1% BSA) with or without the addition of Compound A (1 μM final concentration). After 24 h treatment, cells were washed (2× with PBS) and efflux media was added containing purified apolipoprotein AI (10 ug/ml). Cells and media were harvested at 8 and 24 hour time points. Cells were washed 3× with PBS, and lysed with 300 μl of 0.5 M NaOH. Radioactivity in media and cell lysates were scintillation counted and normalized to cell protein (using BioRad Lowry Kit). Efflux data shown in is presented as CPM (media)/mg cell protein (FIG. 4).
In general terms: Caco-2 monolayers are a common model of the intestinal barrier.

Another assay concerns apolipoprotein AI mRNA. Put plainly: Northern blot of apolipoprotein AI mRNA in tissues of treated mice. In kind it is in vivo, C57BL/6 mouse. Particulars: liver, intestine and kidney; 0, 1, 5 and 50 mg/kg. As to the method:
as §2

Consider `CN(c1ccc(C(O)(C(F)(F)F)C(F)(F)F)cc1)S(=O)(=O)c1ccccc1` [B], for which, in the assay with human ABC1, the “human ABC1 expression (Northern blot)” value is “induced”. For the same compound, in the assay on human ABC8, the “human ABC8 expression (Northern blot)” value was “induced”.

For the compound `CC(c1ccco1)N(C(=O)C12CC3CC(CC(C3)C1)C2)c1ccccn1` (centres unmarked) [C], in the assay on human ABC1, the “human ABC1 expression (Northern blot)” value is “induced”. In the assay on human ABC8, the “human ABC8 expression (Northern blot)” value is recorded as “induced”.

Turning to `O=S(=O)(c1ccccc1)N(CC(F)(F)F)c1ccc(C(O)(C(F)(F)F)C(F)(F)F)cc1` [Compound A], the “ABC1 mRNA” value in the assay with ABC1 mRNA (intestine), in the assay on ABC1 mRNA (kidney) and in the assay on ABC1 mRNA (liver) was “Dose dependent increases” throughout. For the same compound, the “GAPDH mRNA levels” value in the assay on GAPDH mRNA is “no measurable difference”. Also, the figures for the “induction of EST clone AA237916 (murine SSG)” value in assay [1] (intestine of treated mice) and in assay [1] (liver of treated mice) were 2.5 fold and 2.4 fold, respectively. The “SSG expression (mRNA, Northern blot)” value with SSG mRNA (intestine) and with SSG mRNA (liver) was “induced” each time. Also, the cholesterol efflux entry in the assay with Caco-2 cells is on record as “Stimulates Cholesterol Efflux”. Besides, the “apolipoprotein AI mRNA levels” value with apolipoprotein AI mRNA is recorded as “no measurable difference”.
